Results as given in patent US10865196B2, “Compounds for treatment of cancer” (University of Tennessee Research Foundation, priority 2008, dated 2020).
Read-outs that look alike come from different tables or passages of the source.

What was measured:
B16-F1 = test: SRB antiproliferation assay, B16-F1 melanoma; format: cell-based, mouse; conditions: Mus musculus
Description: (§1) For melanoma assays, one human melanoma cell line (A375) and one mouse melanoma cell line (B16-F1) were used. […] Fibroblast cells were used as a control to determine the selectivity of these compounds against melanoma. Human dermal fibroblast cells were purchased from Cascade Biologics, Inc., Portland, Oreg., USA.

A375 = test: SRB antiproliferation assay, A375 melanoma; format: cell-based, human; conditions: Homo sapiens
Description: as §1

[1] = tested on: melanoma (A375, B16-F1) and prostate cancer cells (DU145, PC-3, LNCaP, PPC-1); test: SRB assay, range over melanoma and prostate cancer cell lines; format: cell-based; conditions: for IC50: range over the examined cell lines, read-out: IC50 over melanoma and prostate cancer cell lines; for antiproliferative activity against melanoma and prostate cancer cell lines, in words: compared with 8f or parent compounds
Description: For melanoma assays, one human melanoma cell line (A375) and one mouse melanoma cell line (B16-F1) were used. […] Fibroblast cells were used as a control to determine the selectivity of these compounds against melanoma. Human dermal fibroblast cells were purchased from Cascade Biologics, Inc., Portland, Oreg., USA. […] Cells were exposed to a wide range of concentrations for 48 h in round-bottomed 96-well plates. […] After cells were air-dried overnight and stained with SRB solution, total proteins were measured at 560 nm with a plate reader.

[2] = B16-F1, SRB, read-out: IC50 B16-F1 (converted)
[3] = A-375, SRB, read-out: IC50 A375 (converted)
[4] = B16-F1, 48 h, SRB, 48 h, read-out: IC50 B16-F1 (converted)
[5] = A-375, 48 h, SRB, 48 h, read-out: IC50 A375 (converted)

Row | Compound | IC50 (B16-F1; [2]) [µM] | IC50 (A375; [3]) [µM] | melting point | also measured
1 | COc1cc(C(=O)c2csc(-c3ccccc3)n2)cc(OC)c1O [34-34] | > 10 | > 10 | – | –
2 | COc1cc(C(=O)c2csc(-c3ccc(N)cc3)n2)cc(OC)c1OC [26-26] | – | – | – | IC50 (B16-F1; B16-F1, read-out: IC50 B16-F1): 0.014 µM; IC50 (A375; A-375, read-out: IC50 A375): 0.011 µM
3 | COc1ccc(C(=O)c2csc(-c3ccccc3)n2)cc1OC [8e, (3,4-Dimethoxyphenyl)(2-phenylthiazol-4-yl)-methanone] | – | – | 89 to 91 °C | IC50 (B16-F1; [4]): > 100 µM; IC50 (A375; [5]): > 100 µM; IC50 [1]: > 20 µM
4 | COC(=O)c1ccc(-c2nc(C(=O)c3cc(OC)c(OC)c(OC)c3)cs2)cc1 [8s, Methyl-4-[4-(3,4,5-trimethoxybenzoyl)-thiazol-2-yl]-benzoate] | – | – | 172 to 174 °C | antiproliferative activity against melanoma and prostate cancer cell lines, in words [1]: total loss of potency
5 | COc1cc(-c2nc(C(=O)c3ccc(F)cc3)cn2C(=O)c2ccc(F)cc2)cc(OC)c1OC [30-30] | > 10 | > 10 | – | –
6 | O=C(c1csc(-c2ccccc2)n1)c1ccccc1F [8h, (2-Fluorophenyl)(2-phenylthiazol-4-yl)-methanone] | – | – | 77 to 79 °C | IC50 (B16-F1; [4]): > 100 µM; IC50 (A375; [5]): > 100 µM
7 | COc1ccccc1C(=O)c1csc(-c2ccccc2)n1 [8d, (2-Methoxyphenyl)(2-phenylthiazol-4-yl)-methanone] | – | – | – | IC50 (B16-F1; [4]): 59.4 µM; IC50 (A375; [5]): 70.3 µM; IC50 [1]: > 20 µM
8 | O=C(c1ccc(F)cc1)c1csc(-c2ccccc2)n1 [12-12] | > 10 | > 10 | – | –
9 | O=C(c1csc(-c2cc(F)c(F)c(F)c2)n1)c1c(F)c(F)c(F)c(F)c1F [16-16] | 6.9 | 15.2 | – | –
10 | O=C(c1ccc(F)cc1)N1CCC(c2ccccc2)CC1 [22-22] | > 20 | > 20 | – | –
11 | COc1cc(C(=O)c2csc(-c3ccc(N)cc3)n2)cc(OC)c1OC [8w, [2-(4-Amino-phenyl)-thiazol-4-yl]-(3,4,5-trimethoxy-phenyl)-methanone] | – | – | – | IC50 [1]: 0.011 to 0.029 µM
12 | O=C(c1ccc(F)cc1)c1csc(-c2ccc(F)cc2)n1 [14-14] | > 10 | > 10 | – | –
13 | O=C(c1ccccc1)c1csc(-c2ccccc2)n1 [8a, Phenyl (2-phenylthiazol-4-yl)-methanone] | – | – | 65 to 66 °C | IC50 (B16-F1; [4]): > 100 µM; IC50 (A375; [5]): > 100 µM
14 | O=C(c1ccccn1)c1csc(-c2ccccc2)n1 [8i, (2-Phenylthiazol-4-yl)-(pyridin-2-yl)-methanone] | – | – | 95 to 97 °C | antiproliferative activity against melanoma and prostate cancer cell lines, in words [1]: total loss of the anti-cancer activity
15 | O=C(c1ccc2c(c1)OCO2)N1CCC(c2ccccc2)CC1 [19-19] | > 20 | > 20 | – | –
16 | Cc1ccc(-c2nc(C(=O)c3ccc(F)cc3)cn2C(=O)c2ccc(F)cc2)cc1 [29-29] | > 10 | > 10 | – | –
17 | O=C(c1cc(O)c(O)c(O)c1)c1csc(-c2ccccc2)n1 [33-33] | > 20 | 9.8 | – | –
18 | O=C(c1csc(-c2ccccc2)n1)c1c(F)c(F)c(F)c(F)c1F [17-17] | 9.8 | 4.3 | – | –
19 | COc1cc(C(=O)c2csc(-c3ccc(C(=O)O)cc3)n2)cc(OC)c1OC [8r, 4-[4-(3,4,5-Trimethoxybenzoyl)-thiazol-2-yl]-benzoic acid] | – | – | > 220 °C (dec.) | antiproliferative activity against melanoma and prostate cancer cell lines, in words [1]: total loss of the anti-cancer activity
20 | O=C(c1cc(O)c(O)c(O)c1)c1csc(-c2ccccc2)n1 [11f, (2-Phenyl-thiazol-4-yl)-(3,4,5-trihydroxy-phenyl)-methanone] | – | – | – | antiproliferative activity against melanoma and prostate cancer cell lines, in words [1]: complete loss of antiproliferative activity
21 | CCCCCCCCCCCCCCCCC(=O)c1csc(-c2ccccc2)n1 [8j, 1-(2-Phenylthiazol-4-yl)-heptadecan-1-one] | – | – | 63 to 64 °C | IC50 (B16-F1; [4]): 18.6 µM; IC50 (A375; [5]): 16 µM
